Read-outs that look alike come from different tables or passages of the source.
Tests used:
human MMP14 = human MMP14 (Homo sapiens (Human), UniProt P50281); test: hMMP14 assay (390 MMP FRET Substrate I); format: biochemical; settings: human MMP14 (Biomol), read-out: hMMP-14 potency IC50
Description: The basis for the assay is the cleavage of the substrate 390 MMP FRET Substrate I (Anaspec Cat #AS-27076) by human MMP14 (Biomol, Cat #SE-259).
The reaction is initiated by adding to the assay plate 390 MMP FRET Substrate I (10 μL, 2.5 μM) in the same buffer.
Finally, the fluorescence is read on the Envision (Perkin Elmer) after an incubation of 60 min at room temperature (Excitation 485 nm, Emission 530).

human ADAMTS-5 [1] = biological target: T1, human ADAMTS-5 (Homo sapiens (Human), UniProt Q9UNA0); test: hADAMTS-5 TBIS-1 cleavage assay, Protocol 3; format: biochemical; settings: 90 min at 37° C., read-out: hADAMTS-5 potency IC50
Description: The reaction is initiated by adding to the assay plate TBIS-1 (10 μL, 4.5 μM, Anaspec) in the same buffer.
Finally, the fluorescence is read on the Envision (Perkin Elmer) after an incubation of 90 min at 37° C. (Excitation 485 nm, emission 530).

human ADAMTS4 = human ADAMTS4 (Homo sapiens (Human), UniProt O75173); test: hADAMTS-4 TBIS-1 cleavage assay, Protocol 2; format: biochemical
human TACE = human TACE (Homo sapiens (Human), UniProt P78536); test: biochemical
Description: Finally, the fluorescence is read on the Envision (Perkin Elmer) after an incubation of 75 min at room temperature (Excitation 485 nm, Emission 530).

human ADAMTS6 = human ADAMTS6 (Homo sapiens (Human), UniProt Q9UKP5); test: hADAMTS-6 fluorescent based protease assay (520 MMP FRET substrate XII); format: biochemical; settings: 37° C. for 2 h; read-out: hADAMTS-6 potency IC50
Outline: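 ADAMTS6 (0.73 nM final) in 25 mM Tris pH 8.0, 0.05% CHAPS, 2.5 mM CaCl2 with compound dilution series (top 20 μM, 1/5 steps). Reaction started with 520 MMP FRET Substrate XII, incubated 2 h at 37 °C. Substrate cleavage read by fluorescence ex485/em530; IC50 determined.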

human MMP13 [2] = biological target: T2, human MMP13 (Homo sapiens (Human), UniProt P45452); test: hMMP13 assay, Protocol 2 (390 MMP FRET Substrate I, Enzo enzyme); format: biochemical; settings: Protocol 2, human MMP13 (Enzo Life Sciences), read-out: hMMP-13 potency IC50
Description: (§1) Human MMP13 is preactivated by incubated the enzyme in the same buffer complemented with 1 mM freshly prepared p-Aminophenylmercuric acetate (AMPA) for 1 h at 37° C.

rnADAMTS-5 (1-564-6H) = rnADAMTS-5 (1-564-6H) (Rattus norvegicus (Rat), UniProt Q6TY19); test: Rat ADAMTS-5 TBIS-1 cleavage assay; format: biochemical; settings: 120 min at 37° C.; read-out: Rat ADAMTS-5 potency IC50
human ADAMTS-5 [3] = biological target: T1, human ADAMTS-5; test: hADAMTS-5 TBIS-1 cleavage assay, Protocol 2; format: biochemical; settings: 45 min at 37° C., read-out: ADAMTS5 potency IC50
human MMP13 [4] = biological target: T2, human MMP13; test: hMMP13 assay, Protocol 1 (390 MMP FRET Substrate I, Chemicon enzyme); format: biochemical; settings: Protocol 1, human MMP13 (Chemicon), read-out: hMMP-13 potency IC50
Description: as §1

[5] = Protocol 2, 180 min at 37° C., read-out: ADAMTS4 potency IC50

Chain of rnADAMTS-5 (1-564-6H) (Q6TY19 entry or part of it): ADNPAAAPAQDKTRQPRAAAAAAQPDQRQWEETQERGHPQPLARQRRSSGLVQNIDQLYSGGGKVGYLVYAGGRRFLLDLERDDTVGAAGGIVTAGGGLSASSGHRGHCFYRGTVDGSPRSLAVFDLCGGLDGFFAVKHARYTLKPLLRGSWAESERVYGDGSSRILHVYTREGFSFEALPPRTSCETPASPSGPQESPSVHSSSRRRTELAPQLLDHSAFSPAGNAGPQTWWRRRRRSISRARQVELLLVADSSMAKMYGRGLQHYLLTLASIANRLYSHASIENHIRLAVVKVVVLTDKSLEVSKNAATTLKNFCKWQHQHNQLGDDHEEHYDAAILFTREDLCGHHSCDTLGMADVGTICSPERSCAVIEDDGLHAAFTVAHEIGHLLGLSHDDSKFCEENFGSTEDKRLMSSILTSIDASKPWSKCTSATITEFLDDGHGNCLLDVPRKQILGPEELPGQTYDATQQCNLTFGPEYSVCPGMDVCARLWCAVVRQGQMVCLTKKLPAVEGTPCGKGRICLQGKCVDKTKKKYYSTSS
Chain of human ADAMTS4 (O75173 213-837): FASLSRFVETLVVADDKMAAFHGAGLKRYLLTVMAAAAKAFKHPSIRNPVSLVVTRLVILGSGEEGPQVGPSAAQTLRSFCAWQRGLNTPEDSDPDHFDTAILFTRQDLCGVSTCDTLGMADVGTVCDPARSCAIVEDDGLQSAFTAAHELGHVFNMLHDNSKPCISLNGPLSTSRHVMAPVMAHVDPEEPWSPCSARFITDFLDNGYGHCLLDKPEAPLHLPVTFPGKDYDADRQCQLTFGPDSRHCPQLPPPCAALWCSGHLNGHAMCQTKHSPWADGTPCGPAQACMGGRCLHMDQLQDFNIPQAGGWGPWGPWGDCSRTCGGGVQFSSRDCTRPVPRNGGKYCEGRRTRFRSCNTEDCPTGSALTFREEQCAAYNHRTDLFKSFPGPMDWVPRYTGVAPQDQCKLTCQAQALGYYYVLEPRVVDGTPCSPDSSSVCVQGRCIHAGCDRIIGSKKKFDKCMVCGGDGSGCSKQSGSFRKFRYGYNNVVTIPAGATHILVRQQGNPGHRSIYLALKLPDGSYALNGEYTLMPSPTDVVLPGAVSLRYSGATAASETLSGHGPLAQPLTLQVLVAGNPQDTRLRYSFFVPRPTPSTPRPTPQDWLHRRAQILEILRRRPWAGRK
Chain of human ADAMTS6 (Q9UKP5 other isoform, or with tags, fused parts or gaps): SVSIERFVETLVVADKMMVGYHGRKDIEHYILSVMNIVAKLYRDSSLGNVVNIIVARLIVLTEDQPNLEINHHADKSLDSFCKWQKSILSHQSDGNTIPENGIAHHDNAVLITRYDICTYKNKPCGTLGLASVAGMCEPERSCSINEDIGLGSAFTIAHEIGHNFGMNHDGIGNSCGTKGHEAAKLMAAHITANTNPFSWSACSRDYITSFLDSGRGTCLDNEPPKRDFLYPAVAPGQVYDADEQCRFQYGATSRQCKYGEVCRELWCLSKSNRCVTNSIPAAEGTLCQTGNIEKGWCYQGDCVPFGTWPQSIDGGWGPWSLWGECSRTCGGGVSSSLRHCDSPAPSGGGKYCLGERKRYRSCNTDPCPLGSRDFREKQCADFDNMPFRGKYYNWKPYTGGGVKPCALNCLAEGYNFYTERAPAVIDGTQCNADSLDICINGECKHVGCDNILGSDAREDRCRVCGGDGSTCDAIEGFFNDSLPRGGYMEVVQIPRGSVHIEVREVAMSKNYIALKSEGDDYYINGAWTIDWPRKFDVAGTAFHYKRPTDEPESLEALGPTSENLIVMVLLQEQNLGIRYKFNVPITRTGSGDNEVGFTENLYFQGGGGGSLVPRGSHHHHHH
Chain of human TACE (P78536 215-671): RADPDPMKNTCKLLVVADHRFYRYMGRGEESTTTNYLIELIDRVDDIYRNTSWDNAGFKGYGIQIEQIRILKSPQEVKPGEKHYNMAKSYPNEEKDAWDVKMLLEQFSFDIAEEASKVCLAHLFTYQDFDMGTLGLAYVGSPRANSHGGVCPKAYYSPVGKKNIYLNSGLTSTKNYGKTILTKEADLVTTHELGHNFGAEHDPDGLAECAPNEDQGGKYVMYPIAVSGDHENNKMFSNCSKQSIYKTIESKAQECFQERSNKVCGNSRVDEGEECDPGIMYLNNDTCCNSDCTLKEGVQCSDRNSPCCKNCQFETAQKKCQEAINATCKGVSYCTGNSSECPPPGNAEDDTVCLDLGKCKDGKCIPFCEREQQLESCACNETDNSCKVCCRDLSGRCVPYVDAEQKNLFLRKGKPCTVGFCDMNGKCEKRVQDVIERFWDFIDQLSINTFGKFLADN
T1 sequence (Q9UNA0 262-930): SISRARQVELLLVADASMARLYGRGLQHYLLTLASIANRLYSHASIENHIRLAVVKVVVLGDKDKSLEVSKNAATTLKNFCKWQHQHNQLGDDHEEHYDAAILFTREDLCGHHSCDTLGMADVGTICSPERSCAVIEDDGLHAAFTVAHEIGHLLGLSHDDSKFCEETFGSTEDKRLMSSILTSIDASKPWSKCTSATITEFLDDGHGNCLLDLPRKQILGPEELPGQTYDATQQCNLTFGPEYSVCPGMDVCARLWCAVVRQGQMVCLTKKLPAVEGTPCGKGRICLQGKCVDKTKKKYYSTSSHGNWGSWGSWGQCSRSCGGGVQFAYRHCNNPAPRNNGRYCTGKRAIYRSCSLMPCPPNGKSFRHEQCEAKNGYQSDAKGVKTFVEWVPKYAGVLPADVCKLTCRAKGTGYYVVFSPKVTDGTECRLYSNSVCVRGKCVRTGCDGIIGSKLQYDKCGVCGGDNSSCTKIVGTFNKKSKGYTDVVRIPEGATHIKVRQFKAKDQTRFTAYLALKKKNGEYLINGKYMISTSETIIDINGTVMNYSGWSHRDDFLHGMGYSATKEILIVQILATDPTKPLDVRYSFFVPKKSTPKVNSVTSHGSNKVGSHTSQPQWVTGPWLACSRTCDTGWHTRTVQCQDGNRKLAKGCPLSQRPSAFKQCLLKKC

Compound	IC50 (human ADAMTS-5 [1]) [nM]	IC50 (human ADAMTS4; [5]) [nM]	IC50 (human TACE) [nM]	IC50 (human ADAMTS6) [nM]	IC50 (rnADAMTS-5 (1-564-6H)) [nM]	IC50 (human ADAMTS-5 [3]) [nM]	IC50 (human MMP13 [4]) [nM]	IC50 (human MMP14) [nM]	IC50 (human MMP13 [2]) [nM]	IC50 (human ADAMTS4) [nM]
COc1cc(N2CCN(C(=O)[C@@H](C)C[C@@]3(CN4CCC(F)(F)C4)NC(=O)NC3=O)CC2)cc(F)c1F (stereo in doubt) [Cpd 52, 5-[3-[4-(3,4-difluoro-5-methoxy-phenyl)piperazin-1-yl]-2-methyl-3-oxo-propyl]-5-[(3,3-difluoropyrrolidin-1-yl)methyl]imidazolidine-2,4-dione]	50 to 100	> 100	> 100	0.001 to 25	50 to 100	–	–	> 100	> 100	–
CC1(CCC(=O)N2CCN(c3ccc(OC(F)(F)F)cc3)CC2)NC(=O)NC1=O (centres unmarked) [Cpd 3, 5-methyl-5-[3-oxo-3-[4-[4-(trifluoromethoxy)phenyl]piperazin-1-yl]propyl]imidazolidine-2,4-dione]	–	> 100	> 100	> 100	–	> 100	> 100	–	–	–
COc1cccc(N2CCN(C(=O)CCC3(c4cccnc4)NC(=O)NC3=O)CC2)c1 (centres unmarked) [Cpd 6, 5-[3-[4-(3-methoxyphenyl)piperazin-1-yl]-3-oxo-propyl]-5-(3-pyridyl)imidazolidine-2,4-dione]	–	–	> 100	> 100	> 100	> 100	> 100	–	–	–
COc1ccccc1N1CCN(C(=O)CCC2(C)NC(=O)NC2=O)CC1 (centres unmarked) [Cpd 7, 5-[3-[4-(2-methoxyphenyl)piperazin-1-yl]-3-oxo-propyl]-5-methyl-imidazolidine-2,4-dione]	> 100	–	–	> 100	–	> 100	–	–	–	–
COc1cccc(N2CCN(C(=O)CCC3(c4ccccn4)NC(=O)NC3=O)CC2)c1 (centres unmarked) [Cpd 8, 5-[3-[4-(3-methoxyphenyl)piperazin-1-yl]-3-oxo-propyl]-5-(2-pyridyl)imidazolidine-2,4-dione]	–	–	> 100	> 100	> 100	> 100	> 100	–	–	50 to 100
COc1cc(N2CCN(C(=O)CCC3(C)NC(=O)NC3=O)CC2)ccc1F (centres unmarked) [Cpd 9, 5-[3-[4-(4-fluoro-3-methoxy-phenyl)piperazin-1-yl]-3-oxo-propyl]-5-methyl-imidazolidine-2,4-dione]	> 100	–	> 100	50 to 100	> 100	> 100	> 100	–	–	–
COc1cc(OC)cc(N2CCN(C(=O)CCC3(C)NC(=O)NC3=O)CC2)c1 (centres unmarked) [Cpd 11, 5-[3-[4-(3,5-dimethoxyphenyl)piperazin-1-yl]-3-oxo-propyl]-5-methyl-imidazolidine-2,4-dione]	–	> 100	> 100	> 100	> 100	> 100	> 100	–	–	–
COc1cc(F)cc(N2CCN(C(=O)CCC3(C4CC4)NC(=O)NC3=O)CC2)c1 (centres unmarked) [Cpd 15, 5-cyclopropyl-5-[3-[4-(3-fluoro-5-methoxy-phenyl)piperazin-1-yl]-3-oxo-propyl]imidazolidine-2,4-dione]	50 to 100	–	> 100	> 100	50 to 100	50 to 100	> 100	–	–	50 to 100
CCOc1cccc(N2CCN(C(=O)CCC3(C)NC(=O)NC3=O)CC2)c1 (centres unmarked) [Cpd 16, 5-[3-[4-(3-ethoxyphenyl)piperazin-1l-yl]-3-oxo-propyl]-5-methyl-imidazolidine-2,4-dione]	–	–	–	> 100	–	> 100	–	–	–	–
COc1cc(N2CCN(C(=O)CC[C@@]3(C4CC4)NC(=O)NC3=O)C[C@@H]2C)cc(F)c1F [Cpd 37, (5S)-5-cyclopropyl-5-[3-[(3 S)-4-(3,4-difluoro-5-methoxy-phenyl)-3-methyl-piperazin-1-yl]-3-oxo-propyl]imidazolidine-2,4-dione]	0.001 to 25	–	> 100	0.001 to 25	0.001 to 25	–	> 100	> 100	–	25 to 50
COc1cc(N2CCN(C(=O)[C@@H](C)C[C@@]3(c4ccccn4)NC(=O)NC3=O)CC2)cc(F)c1F [Cpd 54, (5 S)-5-[(2S)-3-[4-(3,4-difluoro-5-methoxy-phenyl)piperazin-1-yl]-2-methyl-3-oxo-propyl]-5-(2-pyridyl)imidazolidine-2,4-dione]	0.001 to 25	–	> 100	0.001 to 25	0.001 to 25	–	–	> 100	> 100	25 to 50
COc1cc(N2CCN(C(=O)[C@@H](CO)C[C@@]3(C)NC(=O)NC3=O)CC2)cc(F)c1F [Cpd 56, (5R)-5-[(2R)-3-[4-(3,4-difluoro-5-methoxy-phenyl)piperazin-1-yl]-2-(hydroxymethyl)-3-oxo-propyl]-5-methyl-imidazolidine-2,4-dione]	25 to 50	–	> 100	0.001 to 25	25 to 50	–	–	> 100	> 100	25 to 50
COC[C@]1(C[C@H](C)C(=O)N2CCN(c3cc(F)c(F)c(OC)c3)CC2)NC(=O)NC1=O [Cpd 59, (5 S)-5-[(2S)-3-[4-(3,4-difluoro-5-methoxy-phenyl)piperazin-1-yl]-2-methyl-3-oxo-propyl]-5-(methoxymethyl)imidazolidine-2,4-dione]	0.001 to 25	–	> 100	0.001 to 25	0.001 to 25	–	–	> 100	> 100	25 to 50

Further lines, with some results ahead:

IC50 (human ADAMTS-5 [1]) [nM]	IC50 (human ADAMTS4; [5]) [nM]	IC50 (human TACE) [nM]	IC50 (human ADAMTS6) [nM]	IC50 (rnADAMTS-5 (1-564-6H)) [nM]	IC50 (human ADAMTS-5 [3]) [nM]	IC50 (human MMP13 [4]) [nM]	Compound	IC50 (human MMP14) [nM]	IC50 (human MMP13 [2]) [nM]	IC50 (human ADAMTS4) [nM]
> 100	–	–	> 100	–	> 100	–	CC1(CCC(=O)N2CCN(c3ccccc3OC(F)(F)F)CC2)NC(=O)NC1=O (centres unmarked) [Cpd 4, 5-methyl-5-[3-oxo-3-[4-[2-(trifluoromethoxy)phenyl]piperazin-1-yl]propyl]imidazolidine-2,4-dione]	–	–	–
–	–	–	> 100	–	> 100	–	COc1ccc(N2CCN(C(=O)CCC3(C)NC(=O)NC3=O)CC2)cc1 (centres unmarked) [Cpd 5, 5-[3-[4-(4-methoxyphenyl)piperazin-1-yl]-3-oxo-propyl]-5-methyl-imidazolidine-2,4-dione]	–	–	–
> 100	> 100	> 100	25 to 50	> 100	> 100	> 100	COc1cc(N2CCN(C(=O)CCC3(C)NC(=O)NC3=O)CC2)ccc1Cl (centres unmarked) [Cpd 10, 5-[3-[4-(4-chloro-3-methoxy-phenyl)piperazin-1-yl]-3-oxo-propyl]-5-methyl-imidazolidine-2,4-dione]	–	–	–
–	–	> 100	> 100	> 100	> 100	> 100	COc1cc(F)cc(N2CCN(C(=O)CCC3(C)NC(=O)NC3=O)CC2)c1 (centres unmarked) [Cpd 12, 5-[3-[4-(3-fluoro-5-methoxy-phenyl)piperazin-1-yl]-3-oxo-propyl]-5-methyl-imidazolidine-2,4-dione]	–	–	–
–	–	> 100	25 to 50	> 100	> 100	> 100	COc1cc(Cl)cc(N2CCN(C(=O)CCC3(C)NC(=O)NC3=O)CC2)c1 (centres unmarked) [Cpd 13, 5-[3-[4-(3-chloro-5-methoxy-phenyl)piperazin-1-yl]-3-oxo-propyl]-5-methyl-imidazolidine-2,4-dione]	–	–	–
> 100	> 100	> 100	25 to 50	> 100	> 100	> 100	COc1cc(N2CCN(C(=O)CCC3(C)NC(=O)NC3=O)CC2)cc(F)c1F (centres unmarked) [Cpd 14, 5-[3-[4-(3,4-difluoro-5-methoxy-phenyl)piperazin-1-yl]-3-oxo-propyl]-5-methyl-imidazolidine-2,4-dione]	–	–	–
50 to 100	> 100	> 100	0.001 to 25	> 100	–	> 100	COc1cc(N2CCN(C(=O)CCC3(C)NC(=O)NC3=O)C[C@@H]2C)cc(Cl)c1F (some centres unmarked) [Cpd 53, 5-[3-[(3 S)-4-(3-chloro-4-fluoro-5-methoxy-phenyl)-3-methyl-piperazin-1l-yl]-3-oxo-propyl]-5-methyl-imidazolidine-2,4-dione]	> 100	> 100	–
> 100	> 100	> 100	0.001 to 25	> 100	–	–	C[C@H]1CN(C(=O)CC[C@@]2(C)NC(=O)NC2=O)CCN1c1ccc(Cl)c(OC(F)(F)F)c1 [Cpd 86, (5R)-5-[3-[(3S)-4-[4-chloro-3-(trifluoromethoxy)phenyl]-3-methyl-piperazin-1-yl]-3-oxo-propyl]-5-methyl-imidazolidine-2,4-dione]	> 100	> 100	–

From patent US10829478B2, “5-[3-[piperazin-1-yl]-3-oxo-propyl]-imidazolidine-2,4-dione derivatives as ADAMTS 4 and 5 inhibitors for treating e.g. osteoarthritis” (Galapagos NV, priority 2016, dated 2020)
